Assay: WS12 leaching from lens into PBS packaging solution during autoclave (HPLC)
Assay type: physicochemical
Conditions: standard contact lens sterilization and storage conditions
Experimental: Silicone hydrogel contact lenses were prepared by curing the formulation for stenfilcon A in contact lens molds. The cured stenfilcon A was removed from the molds and extracted by immersing them for 215 minutes in ethanol (EtOH) containing WS12 (Tocris Bioscience) in the loading concentrations shown in Table I. The lenses were removed from the EtOH and washed in DI water for approximately 6 minutes, followed by two exchanges of DI water for approximately 30 minutes each. The lenses were transferred to 6 mL glass vials containing 3 mL phosphate buffered saline at pH 7.5 (0.78 wt. % NaCl, 0.05 wt. % sodium phosphate monobasic, and 0.36 wt. % sodium phosphate dibasic), referred to herein as PBS. The vials were sealed and autoclaved.
Each autoclaved lens was transferred to a vial containing 3 ml EtOH and stored overnight on a 150 rpm shaker at room temperature to extract WS12 from the lens. The EtOH extracts and the PBS in which the lenses were autoclaved were submitted for analysis by HPLC (detection wavelength=250 nm) against calibration standards to determine the average amount of WS12 loaded into each (n=5) and whether the WS12 leaches from the lens during autoclave.

## COc1ccc(NC(=O)C2CC(C)CCC2C(C)C)cc1 (stereo not shown) [WS12, N-(4-Methoxyphenyl)-5-methyl-2-(1-methylethyl)cyclohexanecarboxamide]
  stability of WS12 in hydrogel lens material during sterilization and storage: without degradation or leaching
